# According to publication PMC8538783, “Green Oxidation of Amines by a Novel Cold-Adapted Monoamine Oxidase MAO P3 from Psychrophilic Fungi Pseudogymnoascus sp. P3” (Molecules, 2021):
# Values joined by “and” are separate entries in the source; they are usually repeats but may differ in a detail not shown here. Equal entries are not always repeated. Where two headings read alike, the source gives them in different places.
# Experiments:
# MAO P3 [1] = test: Initial oxidation screening: bioconversion of amine substrates by cell-free extract, GC-MS; assay type: biochemical, Pseudogymnoascus sp. P3; details: for Rate of Oxidation: 10 mM substrate, 10 mM potassium phosphate buffer pH 7.2, cell-free intracellular extract of P3 strain, 4 h at 30 °C, relative to compound 9 = 100%
# Protocol: (§1) Substrate specificity of MAO P3 was examined towards sixteen amine substrates (listed in Table 3) that differed in the number of carbons and various substitutions. Bioconversion was carried out in 5 mL glass tubes (Schott, Germany), where the total volume of the reaction was 2.5 mL and was comprised of 1 mL of MAO P3 (1 U/mL), where the cell-free extracts were used for the initial oxidation screening and the purified enzyme, for substrate specificity. An amount of 0.75 mL of a substrate (in the range of concentrations between 10 and 100 mM) was resuspended in 0.1 M potassium phosphate pH 7.2, and 0.75 mL of 10 mM potassium phosphate buffer pH 7.2. Initial oxidation screening was carried out for 4 h at 30 °C, 810 rpm. The substrate specificity was measured at 30 °C; reactions were carried out for 5 h, 810 rpm. In order to analyze the products of the bioconversion, samples were first neutralized by the addition of 0.25 mL of 1 M NaOH. An amount of 0.5 mL of dichloromethane was added to samples and incubated at room temperature with shaking for 1 min. The samples were centrifuged for 5 min, 5000 rpm, 4 °C. The organic phase was collected for the gas chromatography-mass spectrometry (GC-MS) analysis. The Km values were calculated based on […] curves (see the Supplementary Materials).
# Samples were injected with the GerstelMultiPurpose sampler (MPS 2). […] Helium was used as a carrier gas with a flow rate of 1.5 mL/min. The injector temperature was held at 250 °C. The oven temperature was initially held at 40 °C for 2 min, ramped up to 200 °C by 10 °C/min; the total run time was 20 min. The detector was operated in EI mode with the transfer line maintained at 280 °C. All substrates were purchased from MerckMillipore, USA, and quantified by GC analysis based on their peak areas and calibration curves prepared for each individual. GC-MS spectra are presented in the Supplementary Materials.
# native MAO N = details: cited from earlier work
# MAO P3 [2] = test: Substrate specificity (Vmax, Km) of purified MAO P3, GC-MS; assay type: biochemical, Pseudogymnoascus sp. P3
# Protocol: as §1
# GC-MS analyses were carried out on a Pegasus 4D (LECO, USA) apparatus, equipped with an Agilent 6890N gas chromatograph coupled with a time-of-flight mass spectrometer (LECO, Saint Joseph, MI, USA). Samples were injected with the GerstelMultiPurpose sampler (MPS 2). The GC was fitted with a BPX5 capillary column of 30 m × 0.25 mm × 0.25 µm (SGE). Helium was used as a carrier gas with a flow rate of 1.5 mL/min. The injector temperature was held at 250 °C. The oven temperature was initially held at 40 °C for 2 min, ramped up to 200 °C by 10 °C/min; the total run time was 20 min. The detector was operated in EI mode with the transfer line maintained at 280 °C. All substrates were purchased from MerckMillipore, USA, and quantified by GC analysis based on their peak areas and calibration curves prepared for each individual. GC-MS spectra are presented in the Supplementary Materials.
# Method S3. Determination of Km and Vmax values based on Lineweaver-Burk curves
# The double-reciprocal curve was create based on the inverse initial velocity as a function of the inverse substrate
# concentration. Curves were created for each amine substrate (Fig. S2), based on the results of GC-MS analysis (Paragraph
# Figure S4. The double-reciprocal curves for MAO P3 amines substrates: A. 3-azabicyclo[3.3.0]octane;
# B. hexamethyleneimine; C. 6,6-dimethyl-3-azabicyclohexane; D. cyclopentylamine; E. α-methylbenzylamine;
# F. pyrrolidine; G. sec-butylamine; H. indoline.
# (1 picture or pasted object on this page, not shown here)
# MAO A = tested on: MAO A; design: method as in PMID 11134050; details: cited from earlier work
# MAO P3 [3] = test: Inhibition analysis of MAO P3 by clorgyline, colorimetric guaiacol/peroxidase assay; assay type: biochemical, Pseudogymnoascus sp. P3; details: preincubated 30 min at 30 °C; substrate 6,6-dimethyl-3-azabicyclohexane
# Protocol: The enzyme was preincubated with different concentrations (from 0.1 to 10^−8 mM) of clorgyline (MerckMillipore, Burlington, MA, USA) for 30 min at 30 °C. MAO P3 activity was measured according to the above-mentioned procedure. Clorgyline solution (1 mM) was prepared in 10 mM potassium phosphate buffer pH 7.2.
# MAO P3 [4] = test: Initial oxidation screening: bioconversion of amine substrates by cell-free extract, GC-MS; assay type: biochemical, Pseudogymnoascus sp. P3; details: 24 h of incubation at 30 °C with shaking
# Pseudogymnoascus sp. P3 = assay type: cell-based
# Protocol: The 125 mL cultures were inoculated from the glycerol stocks. The strains were cultured at 20 °C for 14 days with shaking at 100 rpm in 0.5 L flasks. The growth medium was composed of 3% (w/v) glucose, 0.1% (w/v) KH2PO4, 0.05% (w/v) MgSO4, 0.05% (w/v) KCl, and 0.1% (w/v) NaNO3, which was replaced by 0.1% (v/v) of n-butylamine (MAO inducer) in the induction medium. The concentration of n-butylamine was optimized (tested concentrations: 0.01, 0.03, 0.05, 0.10, 0.15, 0.20, and 0.50%) to maximize the biosynthesis of MAO. The mycelium was collected by filtration, wet mass was weighed and used for further experiments.
# (§2) The activity of MAO P3 was measured by a colorimetric method which is based on the formation of orange-brownish tetraguaiacol in the presence of H2O2 and peroxidase (insert in Figure 2A). The reaction mixture contained 0.5 mL of the enzyme sample, 0.25 mL of 10 mM potassium phosphate buffer pH 7.2, 0.25 mL of 20 mM amine substrate (to identify a potential MAO producer, primary–n-butylamine, and secondary–6,6-dimethyl-3-azabicyclohexane, amines were used), 0.02 mL of peroxidase (90 U/mL), and 0.4 mL of 0.02 M guaiacol (all reagents from MerckMillipore, Burlington, MA, USA). The reaction mixture was incubated at 30 °C for 30 min.
# MAO = test: Colorimetric MAO activity assay of intracellular protein extract of P3 strain; assay type: biochemical, Pseudogymnoascus sp. P3; details: 30 °C, 30 min
# Protocol: as §2
# The absorbance of the samples was measured at 436 nm on the UV/visible spectrophotometer (UV-1800 Shimatdsu, Kyoto, Japan). A unit of enzyme activity was defined as the amount of enzyme that catalyzes the formation of 1.0 μmol of H2O2 per min.
# Figure 2 MAO biosynthesis in 14 psychrophilic fungi strains. The activity was measured towards a primary amine (n-butylamine) and a secondary amine (6,6-dimethyl-3-azabicyclohexane), for each substrate. The reaction was carried out at 30 °C for 30 min with continuous shaking in 10 mM potassium phosphate buffer […]. (A) Activity after the growth in the induction medium, without inoculation from a solid culture; insert: scheme of the measurement of MAO activity in psychrophilic fungi strains; absorbance of tetraguaiacol is measured at 436 nm. (B) Activity after the growth in the induction medium, with inoculation from a solid culture.
# MAO P3 [5] = test: Effect of extra FAD in the reaction mixture on MAO P3 activity; assay type: biochemical, Pseudogymnoascus sp. P3; details: 0.2 mM FAD in reaction mixture, compared to holoenzyme without supplementation of FAD
# Protocol: as §2
# Reconstruction of flavoprotein MAO P3 was carried out in 10 mM potassium phosphate buffer pH 7.2 in a total volume of 5 mL, with different conditions of: FAD concentration (5, 10, 15, 20, 25, and 50 μM), temperature (5, 10, 15, 20, 25, and 30 °C), and time of incubation (from 10 min to 60 min). After incubation, extra FAD was removed by centrifugation at 5000 rpm, 4 °C, 20 min in Centricon concentrators of MWCO of 10 kDa (MerckMillipore, Burlington, MA, USA). The absorption spectrum was measured on a flat-bottom 96-well plate on a MultiScanGo plate reader (ThermoFisher Scientific, Waltham, MA, USA).
# MAO N (N338S, M348K) = tested on: MAO N (N338S, M348K); design: method as in PMID 12207381; details: MAO N with two point mutations (N338S, M348K); cited from earlier work
# MAO N D5 = tested on: MAO N D5; design: method as in PMID 20146293; details: recombinant MAO N D5; cited from earlier work
# [6] = purified MAO P3 1 U/mL, 0.1 M potassium phosphate buffer pH 7.2, 30 °C
# [7] = induction medium inoculated from glycerol stock (no solid preculture)
# [8] = inoculation from solid culture (7 days, 20 °C)
smiles,measurement,setting,value
"O=C1NC2C=CC1C2 (centres unmarked) [Substrate 7, 2-azabicyclo[2.2.1]hept-5-en-3-one]",Rate of Oxidation,MAO P3 [1],0%
NCc1ccccc1 [benzylamine],Km,native MAO N,240 µM
same,kcat,native MAO N,371 min⁻¹
"c1ccc2c(c1)CCN2 [Substrate 12, indoline]",Rate of Oxidation,MAO P3 [1],9%
same,Km,MAO P3 [2]; pH 7.2,20.4 mM
same,Vmax,MAO P3 [2]; [6],0.14 mM/h
CCCN [propylamine],Km,native MAO N,1600 µM
C#CCN(C)CCCOc1ccc(Cl)cc1Cl [clorgyline],IC50,MAO A,1.2 nM
same,low concentration that inhibits MAO A,MAO A,10^−8 M
same,IC50,MAO P3 [3],18 nM
"NC(c1ccccc1)c1ccccc1 [Substrate 14, benzylhydrylamine]",oxidation/conversion by MAO P3 (in words),MAO P3 [1],not able to oxidize
same,Rate of Oxidation,MAO P3 [1],0%
same,conversion by MAO P3 after prolonged incubation (in words),MAO P3 [4],unconverted
CCCCN [n-butylamine],effect on the psychrophilic strains,Pseudogymnoascus sp. P3,acted deadly
same,Relative Activity of MAO P3,Pseudogymnoascus sp. P3; 0.01% n-butylamine in induction medium,6.4 ± 0.31%
same,Relative Activity of MAO P3,Pseudogymnoascus sp. P3; 0.03% n-butylamine in induction medium,19.9 ± 0.31%
same,Relative Activity of MAO P3,Pseudogymnoascus sp. P3; 0.05% n-butylamine in induction medium,30.7 ± 0.20%
same,Relative Activity of MAO P3,Pseudogymnoascus sp. P3; 0.10% n-butylamine in induction medium,100.0%
same,Relative Activity of MAO P3,Pseudogymnoascus sp. P3; 0.15% n-butylamine in induction medium,45.9 ± 0.34%
same,Relative Activity of MAO P3,Pseudogymnoascus sp. P3; 0.20% n-butylamine in induction medium,9.6 ± 0.20%
same,Relative Activity of MAO P3,Pseudogymnoascus sp. P3; 0.50% n-butylamine in induction medium,0.0%
same,Km,native MAO N,600 µM
same,MAO activity towards the amine,MAO; [7],910 ± 4.8 U/L
same,MAO activity towards the amine,MAO; [8],1350 ± 10.5 U/L
"CN1CCCC1 [Substrate 4, 1-methylpyrrolidine]",oxidation/conversion by MAO P3 (in words),MAO P3 [1],no activity
same,Rate of Oxidation,MAO P3 [1],0%
same,conversion by MAO P3 after prolonged incubation (in words),MAO P3 [4],unconverted
"C1CCCNCC1 [Substrate 6, hexamethyleneimine]",Rate of Oxidation,MAO P3 [1],30%
same,Km,MAO P3 [2]; [6],2.64 mM and 2.56 mM
same,Vmax,MAO P3 [2]; [6],0.72 mM/h
CCCCCCN [hexylamine],Km,native MAO N,200 µM
"CC1(C)C2CNCC21 (centres unmarked) [Substrate 9, 6,6-dimethyl-3-azabicyclo[3.1.0]hexane]",Rate of Oxidation,MAO P3 [1],100%
same,Km,MAO P3 [2]; [6],2.4 mM
same,Vmax,MAO P3 [2]; [6],1.1 mM/h
same,MAO activity towards the amine,MAO; [7],959 ± 7.2 U/L
same,MAO activity towards the amine,MAO; [8],1470 ± 10.6 U/L
NCCc1ccccc1 [2-phenethylamine],Km,native MAO N,100 µM
"NCCCCN [Substrate 15, putrescine]",oxidation/conversion by MAO P3 (in words),MAO P3 [1],not able to convert
same,Rate of Oxidation,MAO P3 [1],0%
"c1ccncc1 [Substrate 8, pyridine]",Rate of Oxidation,MAO P3 [1],0%
"Cc1cc2nc3c(=O)[nH]c(=O)nc-3n(C[C@H](O)[C@H](O)[C@H](O)COP(=O)(O)OP(=O)(O)OC[C@H]3O[C@@H](n4cnc5c(N)ncnc54)[C@H](O)[C@@H]3O)c2cc1C [FAD, flavin adenine dinucleotide]",change of MAO P3 activity,MAO P3 [5],increased two-fold
"CC(N)c1ccccc1 (stereo not drawn) [Substrate 5, α-methylbenzylamine]",Rate of Oxidation,MAO P3 [1],41%
same,Km,MAO P3 [2]; [6],4.1 mM and 4.13 mM
same,Vmax,MAO P3 [2]; [6],0.27 mM/h
same,Km,"MAO N (N338S, M348K)",400 µM
same,kcat,native MAO N,0.17 min⁻¹
"C1CC[C@H]2CNC[C@H]2C1 [Substrate 11, cis-8-azabicyclo[4.3.0]nonane]",Rate of Oxidation,MAO P3 [1],0%
same,rate of initial oxidation,MAO N D5,19%
same,conversion by MAO P3 after prolonged incubation (in words),MAO P3 [4],unconverted
"CCC(C)N (centres unmarked) [Substrate 1, sec-butylamine]",Rate of Oxidation,MAO P3 [1],29%
same,Km,MAO P3 [2]; [6],18 mM
same,Vmax,MAO P3 [2]; [6],0.17 mM/h
CCCCCN [amylamine],kcat,native MAO N,1000 min⁻¹
"NCCN1CCCC1 [Substrate 13, 1-(2-aminoethyl)pyrrolidine]",oxidation/conversion by MAO P3 (in words),MAO P3 [1],no activity
same,Rate of Oxidation,MAO P3 [1],0%
same,conversion by MAO P3 after prolonged incubation (in words),MAO P3 [4],unconverted
"C1CCNC1 [Substrate 3, pyrrolidine]",Rate of Oxidation,MAO P3 [1],36%
same,Km,MAO P3 [2]; [6],14.3 mM
same,Vmax,MAO P3 [2]; [6],0.16 mM/h
"NCCCCNCCCN [Substrate 16, spermidine]",oxidation/conversion by MAO P3 (in words),MAO P3 [1],not able to convert
same,Rate of Oxidation,MAO P3 [1],0%
"NC1CCCC1 [Substrate 2, cyclopentylamine]",Rate of Oxidation,MAO P3 [1],31%
same,Km,MAO P3 [2]; [6],8.22 mM
same,Vmax,MAO P3 [2]; [6],0.47 mM/h
"C1CC2CNCC2C1 (centres unmarked) [Substrate 10, 3-azabicyclo[3.3.0]octane]",Rate of Oxidation,MAO P3 [1],67%
same,Km,MAO P3 [2]; [6],10.4 mM
same,Vmax,MAO P3 [2]; [6],0.24 mM/h
same,rate of initial oxidation,MAO N D5,16%
